In US7094868B2, “Peptides for recognition and targeting of GLIAL cell tumors” (Auburn University, priority 2002, dated 2006):

Assays:
RG2 glioma cells [1] = assay: Quantitation of binding specificity: phage output/input titer on RG2 glioma cells; type: cell-based, rat; details: cell-surface-bound phage eluted with low pH buffer; 10^9 cfu/flask, 1 hour, room temperature; FIG. 3
Description: (§1) All analyses were performed in triplicate.

CTX TNA2 astrocytes = assay: Evaluation of binding selectivity: phage output/input titer on normal astrocytes; type: cell-based, rat; details: for binding selectivity, RG2 glioma versus normal astrocytes: cell-attached phage recovered by elution, FIGS. 7, 10
Description: as §1

RG2 glioma cells [2] = assay: Evaluation of binding selectivity: phage output/input titer, RG2 glioma versus control cell lines overall; type: cell-based, rat
Description: as §1

F98 glioma cells = assay: Evaluation of binding selectivity: phage output/input titer on F98 glioma; type: cell-based, rat; details: eluted phage
Description: as §1

[3] = tested on: BRL 3A hepatocytes, H9c2(2-1) cardiac myoblasts, 27FR fibroblasts; details: cell-attached phage recovered by elution; FIGS. 4, 7, 10
Description: In order to evaluate the binding specificity conferred by the peptides, various phage clones were incubated with RG2 glioma cells. Two control phage were compared to the RG2 affinity-selected candidate phage clones (see FIG. 3). […] For the quantitation assay, RG2 cells were grown in 25 cm^2 flasks for approximately 48 hours to sub-confluence. One hour prior to application of phage, the normal media was replaced with serum-free media and incubation was continued. Each phage clone (10^9 cfu/flask) was added to a flask of cells in 2 ml of washing/blocking buffer and incubated for 1 hour at room temperature. Following incubation, unbound phage were removed by washing the cells remaining in the flasks 8 times with 4 ml of cold washing/blocking buffer for 5 minutes per wash. Cell surface-bound phage were recovered by incubation with 1 ml of elution buffer for 10 minutes on ice. The eluate was removed from flasks and neutralized with 1 M Tris. Cells were washed again two times with washing/blocking buffer and lysed by incubation with 1 ml lysis buffer for 30 min at room temperature; the lysate was processed as above. Phage titers were determined by infection of bacteria and are presented in FIG. 3 as a ratio of output to input phage. All analyses were performed in triplicate. […]

[4] = tested on: human glioma cell lines SW1088, M059K, A172, and HS 683; assay: Phage clone binding to human glioma cell lines; type: cell-based; details: A172, HS 683
Description: The ELRGDSLP phage clone was tested further for binding to four different human glioma cell lines: SW1088, M059K, A172, and HS 683, all obtained from the ATCC.

αv, β3, and β1 integrins = assay: Affinity precipitation of RG2 cell membrane proteins with cross-linked phage, Western blot with anti-integrin antibodies; type: binding, rat
Description: Experiments were performed to isolate and purify the RG2-cell-specific protein that was responsible for binding of the ELRGDSLP phage clone to glioma cells. The basic approach was to perform precipitation of RG2 cell membrane proteins by using the phage clone to form an affinity matrix.
To prepare the RG2 cell membrane proteins, RG2 glioma cells were grown in 25 cm^2 tissue culture flasks. The growing medium was removed from the flasks and cells were collected in PBS buffer containing protease inhibitors. Cells were then pelleted by centrifugation and lysed with octylglucoside buffer (10 mM Tris-HCl, pH 7.5, 140 mM NaCl, 10 mM octylglucoside (Sigma), and protease inhibitor cocktail (Sigma); 5 ml per flask). The cell lysate was clarified by centrifugation and the supernatant containing cell membrane proteins was then used for isolation of glioma-specific receptor proteins.
Cross-linked phage were prepared by the method of Smith et al. (1998) (J. Immunol. Methods 215: 151–161) using a water-soluble, multifunctional dextran polymer. After that, ELRGDSLP cross-linked phage were incubated with the clarified lysate of RG2 cells. Following incubation, the crosslinked phage-receptor protein complexes were pelleted by centrifugation at 10,000 rpm for 15 minutes. Phage particles that were not cross-linked remained in the buffer and were discarded. […]

VDLPQHGQ [phage clone displaying the synthetic peptide on major coat protein pVIII]
ratio of output to input phage (apparent binding affinity) on RG2 glioma cells (RG2 glioma cells [1]): highest

DLTKSTAP [phage clone displaying the synthetic peptide on major coat protein pVIII]
binding selectivity, RG2 glioma versus normal astrocytes (CTX TNA2 astrocytes): approximately 14 fold

DYDMTKNT [phage clone displaying the synthetic peptide on major coat protein pVIII]
binding selectivity for glioma cells compared to control cells (in words) (RG2 glioma cells [2]; RG2 and F98 glioma, astrocytes, myoblasts, hepatocytes, fibroblasts): very selective binding

DSTKSGNM [phage clone displaying the synthetic peptide on major coat protein pVIII]
binding to F98 glioma compared to RG2 glioma (in words) (F98 glioma cells; FIG. 7): even better binding | binding selectivity, RG2 glioma versus normal astrocytes (CTX TNA2 astrocytes): 25 fold

VGLPEHTQ
ratio of output to input phage (apparent binding affinity) on RG2 glioma cells (RG2 glioma cells [1]): highest | binding to F98 glioma as % of RG2-binding level (F98 glioma cells; FIG. 4): 41% | binding to normal astrocytes as % of RG2-binding level (CTX TNA2 astrocytes; eluted phage, FIG. 4): 64% | binding selectivity, RG2 glioma versus hepatocytes, myoblasts and fibroblasts [3]: approximately 5 fold

ELRGDSLP [phage clone displaying the synthetic peptide on major coat protein pVIII]
output/input phage ratio compared between ELRGDSLP and ESRGDSYA phage clones (RG2 glioma cells [2]; lysis, FIGS. 5 and 11): significantly lower | binding to human glioma cell lines (in words) [4]: pronounced glioma-specific binding properties | signal with anti-integrin antibodies in phage-purified protein eluate (αv, β3, and β1 integrins): did not produce any positive signal
